The values that follow come from US12349710B2, “Sensory modifiers” (CARGILL, INCORPORATED, priority 2019, dated 2025).

A short description of data set [1]: Perceived sweetness intensity (SEV, sucrose equivalent value) of aqueous test samples. As to conditions: sucrose equivalent value (SEV 1 = 1% sucrose solution); solution in reverse osmosis water. The class given is in vivo. An excerpt: In some aspects, minor steviol glycosides can also have specific sensory attributes related to sweetness intensity. Perceived sweetness intensity can be reported as SEV (sucrose equivalent value) with increasing sweetness intensity corresponding to higher SEV. A SEV of 1 corresponds to a 1% sucrose solution, a SEV of 2 corresponds to a 2% sucrose solution, and so on. While perception of sweetness intensity generally increases as the concentration of the minor steviol glycoside increases, the perceived sweetness intensity can reach a plateau despite increasing amounts of the minor steviol glycoside. […]
As a further example, sweetness intensity of the solutions can be tested by a panel of at least four individuals that are experienced in tasting steviol glycoside compositions. […] The panelists also can taste the standard range of 1%, 2%, 3%, 4%, 5%, 6%, 7%, 8%, 9%, 10%, 11%, 12%, 13%, and 14% sucrose solutions ad libitum between tasting test solutions to ensure an accurate match to their recorded SEV values with the standard sucrose solutions. […]
A mixture of monocaffeoylquinic acid and dicaffeoylquinic acid was obtained from yerba mate to provide the sensory modifier in acid form. […] The resulting samples were freeze-dried to provide sensory modifier (SM) in ready-to-use, powder-form. […]

Data set [2] in a line: Roundtable sensory panel of at least four experienced individuals, aqueous test samples (Example 1). Format: in vivo. Also on record: key to Spiky-Rounded: 0—like Reb M/N (spiky); 1—mostly spiky, some rounded; 2—mostly rounded, some spiky; 3—rounded; key to Sweet Linger / Tea/floral/green / Bitter / Typical Reb M/N Attributes (astringency, metallic, powdery, numbing, vapory): 0—none,; 1—trace/faint; 2—slight; 3—moderate; 4—definite; 5—strong; 6—extreme, typical Reb M/N; key to Mouthfeel: 0—water; 1—sucrosey; 2—syrupy. As to conditions: solution in reverse osmosis water. As to the method:
Solutions were prepared which contained either a steviol glycoside component alone, for use as a control sample, or a steviol glycoside component and sensory modifier in a 2:1 molar ratio, which also corresponds to a 2:1 weight ratio. Solutions were prepared by dissolving the steviol glycoside components and sensory modifiers into reverse osmosis water at the indicated concentrations and/or ratios.
Assays were carried out to characterize the sensory attributes of steviol glycoside compositions having various salt fractions of sensory modifier. Sensory attributes of the solutions were tested by a panel of at least four individuals that are experienced in tasting steviol glycoside compositions. The experienced panelists used a roundtable methodology to assess each sweetness attribute. To test each solution, the experienced panelists dispensed approximately 2 mL of each solution into their own mouths by transfer pipet, dispersed the solution by moving their tongues, and recorded a value for the particular sweetness attribute being tested. Between tasting solutions, the panelists were able to cleanse their palates with water. For each sweetness attribute, the panelists agreed on a descriptive scale with relative intensities assigned for each sweetness attribute and then recorded the values for each sweetness attribute against this.
A mixture of monocaffeoylquinic acid and dicaffeoylquinic acid was obtained from yerba mate to provide the sensory modifier in acid form. Separately from the steviol glycoside component, the mixture of monocaffeoylquinic acid and dicaffeoylquinic acid was adjusted with sodium hydroxide or potassium hydroxide to obtain sodium salts or potassium salts (each corresponding to 100% salt form). The resulting samples were freeze-dried to provide sensory modifier (SM) in ready-to-use, powder-form. A series of samples were prepared from the sensory modifier. For each sample, the final concentration of sensory modifiers was 470-500 ppm (wt/wt), including the contribution of salt mass. Steviol Glycoside Component Examples A and B were used alone as a control sample and also used as the starting point for the sensory modified samples.
For each sample, the flavor profile was compared to the steviol glycoside solution alone as well as to the sample with differing salt composition.

The conditions of data set [3]: cited from earlier work.

Regarding `C=C1C[C@@]23CC[C@H]4[C@@](C)(CCC[C@@]4(C)C(=O)O[C@@H]4O[C@H](CO)[C@@H](O)[C@H](O[C@@H]5O[C@H](CO)[C@@H](O)[C@H](O)[C@H]5O)[C@H]4O[C@@H]4O[C@H](CO)[C@@H](O)[C@H](O)[C@H]4O)[C@@H]2CC[C@]1(O[C@@H]1O[C@H](CO)[C@@H](O)[C@H](O[C@@H]2O[C@H](CO)[C@@H](O)[C@H](O)[C@H]2O)[C@H]1O[C@@H]1O[C@H](CO)[C@@H](O)[C@H](O)[C@H]1O)C3` [Component Example A, rebaudioside M], the SEV in data set [1] is listed as 9.5. Also, in data set [2] (panel score 0-2), the Mouthfeel is listed as 0. This compound yielded a Spiky-Rounded in data set [2] (panel score 0-3) of 0. This compound also returned a Tea/floral/green in data set [2] (panel score 0-5) of 0. Besides, in data set [2] (panel score 0-6), the Bitter is 5; the “Sweet Linger” value came to 4; the “Typical Reb M/N Attributes (astringency, metallic, powdery, numbing, vapory)” value is 4.

Regarding `O=C(O)[C@]1(O)C[C@@H](O)[C@@H](O)[C@H](O)C1` [quinic acid, D-(−)-quinic acid], in data set [3], the pKa result was “around 3.46”.
